Measured values published in PMC3838641 (Biochemistry, 2013).

Key:
[1] = target: T1, orotidine 5'-monophosphate decarboxylase (ScOMPDC) (Saccharomyces cerevisiae, UniProt P03962, R235A); assay: UV decarboxylation kinetics of truncated substrate; format: biochemical
T1 sequence (P03962 2-267 R235A): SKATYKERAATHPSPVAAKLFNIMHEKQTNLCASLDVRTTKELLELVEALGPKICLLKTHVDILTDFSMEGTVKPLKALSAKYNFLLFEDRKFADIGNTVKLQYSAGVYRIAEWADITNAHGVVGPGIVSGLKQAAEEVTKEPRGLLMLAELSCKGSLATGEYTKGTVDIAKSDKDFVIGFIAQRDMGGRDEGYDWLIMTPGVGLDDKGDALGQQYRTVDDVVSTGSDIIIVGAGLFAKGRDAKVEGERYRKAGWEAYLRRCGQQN

[2] = target: T1, orotidine 5'-monophosphate decarboxylase (ScOMPDC)
[3] = target: T1, orotidine 5'-monophosphate decarboxylase (ScOMPDC); assay: […] NMR deuterium exchange kinetics with purified enzyme, Michaelis-Menten fit; format: biochemical

SMILES: O=C(O)c1c(F)c(=O)[nH]c(=O)n1[C@@H]1OC[C@@H](O)[C@H]1O [FEO, 1-(β-D-erythrofuranosyl)-5-fluoroorotic acid]
- FEO + HPO3^2- / (kcat/Km)E [1]: 12 M⁻¹ s⁻¹

SMILES: O=[PH](O)O [HPO3^2−, phosphite dianion]
- FEO + HPO3^2- / (kcat/Km)E•HPi/Kd (M^-2 s^-1) [2]: 250 ± 15 M^−2 s^−1

SMILES: O=c1[nH]c(=O)n([C@@H]2O[C@H](COP(=O)(O)O)[C@@H](O)[C@H]2O)cc1F [h-FUMP, 5-fluorouridine 5'-monophosphate]
- Kd [3]: 5 mM
